What was measured:
Test in all cases: In vitro assay of antibacterial activity (agar dilution MIC)
Type in all cases: cell-based
[1] = tested on: Candida albicans CCH 442; settings: BHI agar, 35-37 °C, 20 to 24 hours, unit assumed
Experimental: (§1) Representative compounds of the present invention were assayed in vitro for antibacterial activity as follows: Twelve petri dishes containing successive aqueous dilutions of the test compound mixed with 10 mL of sterilized Brain Heart Infusion (BHI) agar (Difco 0418-01-5) were prepared. Each plate was inoculated with 1:100 (or 1:10 for slow-growing strains, such as Micrococcus and Streptococcus) dilutions of up to 32 different microorganisms, using a Steers replicator block. The inoculated plates were incubated at 35-37 °C for 20 to 24 hours, In addition, a control plate, using BHI agar containing no test compound, was prepared and incubated at the beginning and end of each test.
(§2) An additional plate containing a compound having known susceptibility patterns for the organisms being tested and belonging to the same antibiotic class as the test compound was also prepared and incubated as a further control, as well as to provide test-to-test comparability. Erythromycin A was used for this purpose.
(§3) After incubation, each plate was visually inspected. The minimum inhibitory concentration (MIC) was defined as the lowest concentration of drug yielding no growth, a slight haze, or sparsely isolated colonies on the inoculum spot as compared to the growth control. […]

[2] = tested on: Enterobacter aerogenes ATCC 13048; settings: BHI agar, 35-37 °C, 20 to 24 hours, unit assumed
Experimental: as §1, §2, §3

[3] = tested on: Enterococcus faecium ATCC 8043; settings: BHI agar, 35-37 °C, 20 to 24 hours, unit assumed
Experimental: as §1, §2, §3

[4] = tested on: Escherichia coli DC-2; settings: BHI agar, 35-37 °C, 20 to 24 hours, unit assumed
Experimental: as §1, §2, §3

[5] = tested on: Escherichia coli H560; settings: BHI agar, 35-37 °C, 20 to 24 hours, unit assumed
Experimental: as §1, §2, §3

[6] = tested on: Escherichia coli JUHL; settings: BHI agar, 35-37 °C, 20 to 24 hours, in µg/mL (unit assumed)
Experimental: as §1, §2, §3

[7] = tested on: Escherichia coli KNK 437; settings: BHI agar, 35-37 °C, 20 to 24 hours, unit assumed
Experimental: as §1, §2, §3

[8] = tested on: Escherichia coli SS; settings: BHI agar, 35-37 °C, 20 to 24 hours, unit assumed
Experimental: as §1, §2, §3

[9] = tested on: Klebsiella pneumoniae ATCC 8045; settings: BHI agar, 35-37 °C, 20 to 24 hours, unit assumed
Experimental: as §1, §2, §3

[10] = tested on: Micrococcus luteus ATCC 4698; settings: BHI agar, 35-37 °C, 20 to 24 hours, unit assumed
Experimental: as §1, §2, §3

[11] = tested on: Micrococcus luteus ATCC 9341; settings: BHI agar, 35-37 °C, 20 to 24 hours, unit assumed
Experimental: as §1, §2, §3

[12] = tested on: Mycobacterium smegmatis ATCC 114; settings: BHI agar, 35-37 °C, 20 to 24 hours, unit assumed
Experimental: as §1, §2, §3

[13] = tested on: Providencia struartii CMX 640; settings: BHI agar, 35-37 °C, 20 to 24 hours, unit assumed
Experimental: as §1, §2, §3

[14] = tested on: Pseudomonas aeruginosa 5007; settings: BHI agar, 35-37 °C, 20 to 24 hours, unit assumed
Experimental: as §1, §2, §3

[15] = tested on: Pseudomonas aeruginosa BMH10; settings: BHI agar, 35-37 °C, 20 to 24 hours, in µg/mL (unit assumed)
Experimental: as §1, §2, §3

[16] = tested on: Pseudomonas aeruginosa DPHD-2862; settings: BHI agar, 35-37 °C, 20 to 24 hours, unit assumed
Experimental: as §1, §2, §3

[17] = tested on: Pseudomonas aeruginosa DPHD-5263; settings: BHI agar, 35-37 °C, 20 to 24 hours, in µg/mL (unit assumed)
Experimental: as §1, §2, §3

[18] = tested on: Pseudomonas aeruginosa K799/61; settings: BHI agar, 35-37 °C, 20 to 24 hours, unit assumed
Experimental: as §1, §2, §3

[19] = tested on: Pseudomonas aeruginosa K799/WT; settings: BHI agar, 35-37 °C, 20 to 24 hours, unit assumed
Experimental: as §1, §2, §3

[20] = tested on: Pseudomonas capacia 2961; settings: BHI agar, 35-37 °C, 20 to 24 hours, in µg/mL (unit assumed)
Experimental: as §1, §2, §3

[21] = tested on: Staphylococcus aureus 1775; settings: BHI agar, 35-37 °C, 20 to 24 hours, unit assumed
Experimental: as §1, §2, §3

[22] = tested on: Staphylococcus aureus A-5278; settings: BHI agar, 35-37 °C, 20 to 24 hours, unit assumed
Experimental: as §1, §2, §3

[23] = tested on: Staphylococcus aureus ATCC 6538P; settings: BHI agar, 35-37 °C, 20 to 24 hours, unit assumed
Experimental: as §1, §2, §3

[24] = tested on: Staphylococcus aureus CMX 553; settings: BHI agar, 35-37 °C, 20 to 24 hours, unit assumed
Experimental: as §1, §2, §3

[25] = tested on: Staphylococcus aureus CMX 642A; settings: BHI agar, 35-37 °C, 20 to 24 hours, unit assumed
Experimental: as §1, §2, §3

[26] = tested on: Staphylococcus aureus NCTC10649M; settings: BHI agar, 35-37 °C, 20 to 24 hours, unit assumed
Experimental: as §1, §2, §3

[27] = tested on: Staphylococcus epidermidis 3519; settings: BHI agar, 35-37 °C, 20 to 24 hours, unit assumed
Experimental: as §1, §2, §3

[28] = tested on: Streptococcus agalactiae CMX 508; settings: BHI agar, 35-37 °C, 20 to 24 hours, unit assumed
Experimental: as §1, §2, §3

[29] = tested on: Streptococcus bovis A-5169; settings: BHI agar, 35-37 °C, 20 to 24 hours, unit assumed
Experimental: as §1, §2, §3

[30] = tested on: Streptococcus pyogenes 930; settings: BHI agar, 35-37 °C, 20 to 24 hours, unit assumed
Experimental: as §1, §2, §3

[31] = tested on: Streptococcus pyogenes EES61; settings: BHI agar, 35-37 °C, 20 to 24 hours, unit assumed
Experimental: as §1, §2, §3

[32] = tested on: Streptococcus pyogenes PIU 2548; settings: BHI agar, 35-37 °C, 20 to 24 hours, unit assumed
Experimental: as §1, §2, §3

[33] = tested on: Actinetobacter calcoaceticus CMX 669; settings: BHI agar, 35-37 °C, 20 to 24 hours, unit assumed
Experimental: as §1
(§4) An additional plate containing a compound having known susceptibility patterns for the organisms being tested and belonging to the same antibiotic class as the test compound was also prepared and incubated as a further control, as well as to provide test-to-test comparability.
as §3

[34] = tested on: Staphylococcus aureus A5177; settings: BHI agar, 35-37 °C, 20 to 24 hours, unit assumed
Experimental: as §1, §4, §3

[35] = tested on: Nocarrdia asteroides ATCC 9970; settings: BHI agar, 35-37 °C, 20 to 24 hours, unit assumed
Experimental: as §1, §2, §3

Row | SMILES | MIC [1] [µg/mL] | MIC [2] [µg/mL] | MIC [3] [µg/mL] | MIC [4] [µg/mL] | MIC [5] [µg/mL] | MIC [6] | MIC [7] [µg/mL] | MIC [8] [µg/mL] | MIC [9] [µg/mL] | MIC [11] [µg/mL] | MIC [12] [µg/mL] | MIC [13] [µg/mL] | MIC [14] [µg/mL] | MIC [15] | MIC [16] [µg/mL] | MIC [17] | MIC [19] [µg/mL] | MIC [20] | MIC [21] [µg/mL] | MIC [22] [µg/mL] | other results
1 | CC[C@H]1OC(=O)[C@H](C)[C@@H](O[C@H]2C[C@@](C)(OC)[C@@H](O)[C@H](C)O2)[C@H](C)[C@@H](O[C@@H]2O[C@H](C)C[C@H](N(C)C)[C@H]2O)[C@](C)(OCC(O)CO)C[C@@H](C)C(=O)[C@H](C)[C@@H](O)[C@]1(C)O (stereo partly shown) [Example 3, Compound of Formula (X): X is =O, R is 2.3-dihydroxypropyl] | > 100 | > 100 | 0.39 | 50 | 25 | 50 | 100 | 1.56 | > 100 | 0.1 | 0.78 | > 100 | > 100 | >100 | > 100 | > 100 | > 100 | >100 | > 100 | > 100 | MIC [10]: 1.56 µg/mL; MIC [18]: 1.56 µg/mL; MIC [23]: 1.56 µg/mL; MIC [24]: 3.1 µg/mL; MIC [25]: 1.56 µg/mL; MIC [26]: 1.56 µg/mL; MIC [27]: 0.78 µg/mL; MIC [28]: 0.39 µg/mL; MIC [29]: 0.2 µg/mL; MIC [30]: > 100 µg/mL; MIC [31]: 0.2 µg/mL; MIC [32]: 12.5 µg/mL; MIC [33]: 12.5 µg/mL; MIC [34]: 50 µg/mL
2 | CC[C@H]1OC(=O)[C@H](C)[C@@H](O[C@H]2C[C@@](C)(OC)[C@@H](O)[C@H](C)O2)[C@H](C)[C@@H](O[C@@H]2O[C@H](C)C[C@H](N(C)C)[C@H]2O)[C@](C)(OCC(O)CN2CCOCC2)C[C@@H](C)C(=O)[C@H](C)[C@@H](O)[C@]1(C)O (stereo partly shown) [Example 6, Comnound of Formula (X): X is =O, R is 2-hydroxy-3-(morpholin-4-yl)propyl] | > 100 | > 100 | 0.39 | > 100 | 100 | > 100 | > 100 | 0.78 | > 100 | 0.1 | 0.2 | > 100 | > 100 | > 100 | > 100 | > 100 | > 100 | > 100 | > 100 | > 100 | MIC [10]: 1.56 µg/mL; MIC [18]: 12.5 µg/mL; MIC [23]: 0.78 µg/mL; MIC [24]: 0.78 µg/mL; MIC [25]: 1.56 µg/mL; MIC [26]: 0.78 µg/mL; MIC [27]: 0.78 µg/mL; MIC [28]: 0.1 µg/mL; MIC [30]: > 100 µg/mL; MIC [31]: 0.05 µg/mL; MIC [32]: 6.2 µg/mL; MIC [33]: 25 µg/mL; MIC [34]: 25 µg/mL
3 | C#CCO[C@]1(C)C[C@@H](C)C(=O)[C@H](C)[C@@H](O)[C@](C)(O)[C@@H](CC)OC(=O)[C@H](C)[C@@H](O[C@H]2C[C@@](C)(OC)[C@@H](O)[C@H](C)O2)[C@H](C)[C@H]1O[C@@H]1O[C@H](C)C[C@H](N(C)C)[C@H]1O [Example 10, Compound of Formula (X): X is =O, R is -CH2-C≡CH] | > 100 | > 100 | 0.1 | 100 | 25 | 50 | > 100 | 0.78 | > 100 | 0.05 | 0.39 | > 100 | > 100 | 100 | > 100 | > 100 | > 100 | >100 | > 100 | > 100 | MIC [10]: 0.78 µg/mL; MIC [18]: 3.1 µg/mL; MIC [23]: 0.2 µg/mL; MIC [24]: 0.39 µg/mL; MIC [25]: 0.39 µg/mL; MIC [26]: 0.39 µg/mL; MIC [27]: 0.2 µg/mL; MIC [28]: 0.05 µg/mL; MIC [29]: 0.01 µg/mL; MIC [30]: > 100 µg/mL; MIC [31]: 0.01 µg/mL; MIC [33]: 12.5 µg/mL; MIC [34]: 6.2 µg/mL
4 | CC[C@H]1OC(=O)[C@H](C)[C@@H](O[C@H]2C[C@@](C)(OC)[C@@H](O)[C@H](C)O2)[C@H](C)[C@@H](O[C@@H]2O[C@H](C)C[C@H](N(C)C)[C@H]2O)[C@](C)(OCC(O)CN=[N+]=[N-])C[C@@H](C)C(=O)[C@H](C)[C@@H](O)[C@]1(C)O (stereo partly shown) [Example 11, Compound of Formula (X): X is =O, R is -CH2-CHOH-CH2-N3] | > 100 | > 100 | 0.39 | > 100 | 50 | 100 | > 100 | 1.56 | > 100 | 0.05 | 0.39 | > 100 | > 100 | > 100 | > 100 | > 100 | > 100 | > 100 | > 100 | > 100 | MIC [35]: 0.1 µg/mL; MIC [23]: 0.78 µg/mL; MIC [24]: 0.78 µg/mL; MIC [25]: 1.56 µg/mL; MIC [26]: 0.78 µg/mL; MIC [27]: 0.78 µg/mL; MIC [28]: 0.05 µg/mL; MIC [29]: 0.2 µg/mL; MIC [30]: > 100 µg/mL; MIC [31]: 0.05 µg/mL; MIC [32]: 25 µg/mL; MIC [33]: 25 µg/mL; MIC [34]: 6.2 µg/mL
